# Test results taken from patent US11773369B2, “Generation of human spinal cord neural stem cells” (THE REGENTS OF THE UNIVERSITY OF CALIFORNIA, priority 2018, dated 2023).
# Tested on: H9-derived spinal cord NSCs
# Assay: Long-term maintenance and expansion of spinal cord NSCs in neural maintenance media
# Assay type: cell-based, human
# Details: for effect of omission from maintenance media on cultures: omission of the component, data not shown
smiles,measurement,setting,value
CNC1CCC(N(Cc2cccc(-c3ccncc3)c2)C(=O)c2sc3c(F)ccc(F)c3c2Cl)CC1 (stereo not drawn) [Hh-Ag1.5],"effect on dorso-ventral polarity of induced cells (NKX6.1, PAX6)",18 days after neural induction,disrupted dorso-ventral polarity
same,effect of omission from maintenance media on cultures,,failure to sustain cultures over time
Cc1c[nH]c(-c2cnc(NCCNc3ccc(C#N)cn3)nc2-c2ccc(Cl)cc2Cl)n1 [CHIR],effect of omission from maintenance media on cultures,,failure to sustain cultures over time
